Laboratory results published in ChEMBL document CHEMBL4376820, “Homodimeric Tobramycin Adjuvant Repurposes Novobiocin as an Effective Antibacterial Agent against Gram-Negative Bacteria” (J Med Chem, 2019).
Calls of active or inactive are those of the source. The calls are words filed in the database; no cut-off is given here.

What was measured:
Pseudomonas aeruginosa = assay: Potentiation of novobiocin-induced antibacterial activity against wild type Pseudomonas aeruginosa PAO1 incubated for 18 hrs by CLSI protocol based assay; assay type: functional, organism-based
Acinetobacter baumannii [1] = assay: Antibacterial activity against novobiocin-resistant Acinetobacter baumannii ATCC 17978 mutant generated from seven serial passages by checkerboard assay; assay type: functional
Acinetobacter baumannii [2] = assay: Antibacterial activity against colistin-resistant Acinetobacter baumannii ATCC 17978 mutant generated from seven serial passages by checkerboard assay; assay type: functional
Acinetobacter baumannii [3] = assay: Antibacterial activity against novobiocin and test compound-resistant Acinetobacter baumannii ATCC 17978 mutant generated from seven serial passages in presence of novobiocin by checkerboard assay; assay type: functional
Acinetobacter baumannii [4] = assay: Antibacterial activity against wild type Acinetobacter baumannii ATCC 17978 by checkerboard assay; assay type: functional

SMILES | Activity (Pseudomonas aeruginosa) | MIC (Acinetobacter baumannii [1]) | MIC (Acinetobacter baumannii [2]) | MIC (Acinetobacter baumannii [3]) | MIC (Acinetobacter baumannii [4])
CC(C)(C)OC(=O)NC[C@H]1O[C@H](O[C@H]2[C@H](OCCCCc3cn(CCCCO[C@@H]4[C@@H](O[C@H]5O[C@H](CO)[C@@H](O)[C@H](NC(=O)OC(C)(C)C)[C@H]5O)[C@H](NC(=O)OC(C)(C)C)C[C@H](NC(=O)OC(C)(C)C)[C@H]4O[C@H]4O[C@H](CNC(=O)OC(C)(C)C)[C@@H](O)C[C@H]4NC(=O)OC(C)(C)C)nn3)[C@@H](O[C@H]3O[C@H](CO)[C@@H](O)[C@H](NC(=O)OC(C)(C)C)[C@H]3O)[C@H](NC(=O)OC(C)(C)C)C[C@@H]2NC(=O)OC(C)(C)C)[C@H](NC(=O)OC(C)(C)C)C[C@@H]1O | inactive |  |  |  | 
C#CCCCCO[C@@H]1[C@@H](O[C@H]2O[C@H](CO)[C@@H](O)[C@H](N)[C@H]2O)[C@H](N)C[C@H](N)[C@H]1O[C@H]1O[C@H](CN)[C@@H](O)C[C@H]1N | inactive |  |  |  | 
CN(C)c1ccc(O)c2c1C[C@H]1C[C@H]3[C@H](N(C)C)C(O)=C(C(N)=O)C(=O)[C@@]3(O)C(O)=C1C2=O [MINOCYCLINE] |  | 0.5 µg/mL | < 0.031 µg/mL | 0.125 µg/mL | 0.125 µg/mL
CO[C@H]1/C=C/O[C@@]2(C)Oc3c(C)c(O)c4c(O)c(c(/C=N/N5CCN(C)CC5)c(O)c4c3C2=O)NC(=O)/C(C)=C\C=C\[C@H](C)[C@H](O)[C@@H](C)[C@@H](O)[C@@H](C)[C@H](OC(C)=O)[C@@H]1C [RIFAMPIN] |  | 2 µg/mL | < 0.031 µg/mL | 2 µg/mL | 2 µg/mL
CC(C)(O/N=C(\C(=O)N[C@@H]1C(=O)N2C(C(=O)[O-])=C(C[n+]3ccccc3)CS[C@H]12)c1csc(N)n1)C(=O)O [CEFTAZIDIME] |  | 32 µg/mL | 1 µg/mL | 16 µg/mL | 16 µg/mL
